Test results from patent US20240041042A1, “1-(PYRIDYL)-5-AZINYLPYRAZOLE DERIVATIVES, AND THEIR USE FOR CONTROL OF UNDESIRED PLANT GROWTH” (Bayer Aktiengesellschaft, priority 2020, published 2024).
Read-outs that look alike come from different tables or passages of the source.

Tests used:
Type in all cases: in vivo
[1] = system: Alopecurus myosuroides (ALOMY); assay: Pre-emergence herbicidal action against ALOMY; conditions: scored visually after about 3 weeks, 100% = plants have died
How it was run: (§1)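 Pre-emergence soil-surface spray, WP/EC formulation, 0.5% additive, 600 l/ha water, rates of 320 g/ha or lower. Greenhouse, ~3 wk. Visual score, % of untreated control (100% = plants dead, 0% = like control).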

[2] = system: Amaranthus retroflexus (AMARE); assay: Pre-emergence herbicidal action against AMARE; conditions: visual scoring after about 3 weeks vs untreated controls
How it was run: as §1

[3] = system: Digitaria sanguinalis (DIGSA); assay: Pre-emergence herbicidal action against DIGSA
How it was run: as §1

[4] = system: Echinochloa crus-galli (ECHCG); assay: Pre-emergence herbicidal action against ECHCG; conditions: dosage 320 g/ha
How it was run: as §1

Lolium rigidum (LOLRI) [5] = assay: Pre-emergence herbicidal action against LOLRI
How it was run: as §1

[6] = system: Matricaria inodora (MATIN); assay: Pre-emergence herbicidal action against MATIN; conditions: dosage 320 g/ha
How it was run: as §1

[7] = system: Pharbitis purpurea (PHBPU); assay: Pre-emergence herbicidal action against PHBPU; conditions: dosage 320 g/ha
How it was run: as §1

[8] = system: Polygonum convolvulus (POLCO); assay: Pre-emergence herbicidal action against POLCO; conditions: dosage 320 g/ha
How it was run: as §1

Setaria viridis (SETVI) [9] = assay: Pre-emergence herbicidal action against SETVI
How it was run: as §1

[10] = system: Verconica persica (VERPE); assay: Pre-emergence herbicidal action against VERPE; conditions: dosage 320 g/ha
How it was run: as §1

Viola tricolor (VIOTR) [11] = assay: Pre-emergence herbicidal action against VIOTR
How it was run: as §1

Oryza sativa (ORYSA) [12] = conditions: pre-emergence, 80 g/ha, crop plant compatibility, in comparison to untreated controls
How it was run: (§2)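 Crop injury rated visually in percent against untreated plants roughly 3 weeks after treatment (0% no effect, 100% plants dead). Compounds, as WP or EC with 0.5% additive in 600 l/ha water, were applied to the covering soil right after sowing; greenhouse growth. Suffixes a, b, c denote different dosages.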

Zea mays (ZEAMX) [13] = conditions: pre-emergence, 80 g/ha, crop plant compatibility, in comparison to untreated controls
How it was run: as §2

[14] = system: Alopecurus myosuroides (ALOMY); assay: Post-emergence herbicidal action against ALOMY; conditions: visual rating about 3 weeks after treatment vs untreated controls (100% = plants have died, 0% = like control plants)
How it was run: (§3)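 Values are percent visual activity (0% like control, 100% plants dead) after about 3 weeks in the greenhouse. Treatment: post-emergence spray at one-leaf stage, 600 l/ha spray volume, 0.5% additive, doses 320 g/ha or lower.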

[15] = system: Amaranthus retroflexus (AMARE); assay: Post-emergence herbicidal action against AMARE
How it was run: as §3

[16] = system: Digitaria sanguinalis (DIGSA); assay: Post-emergence herbicidal action against DIGSA; conditions: visual rating about 3 weeks after treatment
How it was run: as §3

[17] = system: Verconica persica (VERPE); assay: Post-emergence herbicidal action against VERPE
How it was run: as §3

Oryza sativa (ORYSA) [18] = conditions: crop plant compatibility
How it was run: (§4)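 Effects were read visually as % versus untreated controls (0% = no effect, 100% = death) about 3 weeks post-treatment. Application was a post-emergence spray at the one-leaf stage of WP/EC formulations with 0.5% additive at 600 l/ha. Different dosages are denoted a, b and c.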

Zea mays (ZEAMX) [19] = conditions: for Post-emergence action against ZEAMX in %: crop plant compatibility, effect vs untreated controls
How it was run: as §4

Avena fatua (AVEFA) [20] = assay: Pre-emergence herbicidal action against AVEFA; conditions: 320 g/ha, visual scoring after about 3 weeks vs untreated controls
How it was run: as §1

[21] = system: Abutilon theophrasti (ABUTH); assay: Post-emergence herbicidal action against ABUTH; conditions: 320 g/ha, visual rating about 3 weeks after treatment vs untreated controls (100% = plants have died, 0% = like control plants)
How it was run: as §3

Avena fatua (AVEFA) [22] = assay: Post-emergence herbicidal action against AVEFA; conditions: visual rating about 3 weeks after treatment
How it was run: as §3

[23] = system: Echinochloa crus-galli (ECHCG); assay: Post-emergence herbicidal action against ECHCG
How it was run: as §3

[24] = system: Pharbitis purpurea (PHBPU); assay: Post-emergence herbicidal action against PHBPU
How it was run: as §3

[25] = system: Polygonum convolvulus (POLCO); assay: Post-emergence herbicidal action against POLCO
How it was run: as §3

Setaria viridis (SETVI) [26] = assay: Post-emergence herbicidal action against SETVI
How it was run: as §3

Viola tricolor (VIOTR) [27] = assay: Post-emergence herbicidal action against VIOTR; conditions: 320 g/ha
How it was run: as §3

Lolium rigidum (LOLRI) [28] = assay: Post-emergence herbicidal action against LOLRI; conditions: dosage 320 g/ha
How it was run: as §3

[29] = 80 g/ha, visual scoring after about 3 weeks vs untreated controls
[30] = 80 g/ha, visual rating about 3 weeks after treatment vs untreated controls (100% = plants have died, 0% = like control plants)
[31] = 80 g/ha, effect in comparison to untreated controls

Row | Compound | Pre-emergence action against ALOMY ([1]; 320 g/ha) [%] | Pre-emergence action against AMARE in % ([2]; 320 g/ha) [%] | Pre-emergence action against DIGSA in % [3, 29] [%] | Pre-emergence action against DIGSA in % ([3]; dosage 320 g/ha) [%] | Pre-emergence action against ECHCG in % [4] [%] | Pre-emergence action against LOLRI in % (Lolium rigidum (LOLRI) [5]; dosage 320 g/ha) [%] | Pre-emergence action against MATIN in % [6] [%] | Pre-emergence action against PHBPU in % [7] [%] | Pre-emergence action against POLCO in % [8] [%] | Pre-emergence action against SETVI in % (Setaria viridis (SETVI) [9]; dosage 320 g/ha) [%] | Pre-emergence action against VERPE in % [10] [%] | Pre-emergence action against VIOTR in % (Viola tricolor (VIOTR) [11]; 320 g/ha, Viola tricolor) [%] | Pre-emergence action against ORYSA in % (Oryza sativa (ORYSA) [12]) [%] | Pre-emergence action against ZEAMX in % (Zea mays (ZEAMX) [13]) [%] | Post-emergence action against ALOMY in % ([14]; 80 g/ha) [%] | Post-emergence action against AMARE in % [15, 30] [%] | Post-emergence action against DIGSA in % ([16]; 80 g/ha) [%] | Post-emergence action against ORYSA in % (Oryza sativa (ORYSA) [18]; [31]) [%] | Post-emergence action against ZEAMX in % (Zea mays (ZEAMX) [19]; 80 g/ha) [%] | Post-emergence action against ALOMY in % ([14]; 320 g/ha) [%] | other results
1 | O=C(COc1nn(-c2ccccn2)c(-c2ccc(F)nc2)c1Br)OCC1CCOC1 (stereo not drawn) [Example I-90] | 100 | 100 | 100 | 100 | 100 | 100 | 90 | 90 | 90 | 100 | 90 | 90 | 10 | 20 | 90 | 80 | 90 | 0 | 10 | – | Pre-emergence action against ALOMY ([1]; 80 g/ha): 90%; Pre-emergence action against AMARE in % ([2]; 80 g/ha): 100%; Pre-emergence action against SETVI in % (Setaria viridis (SETVI) [9]; dosage 80 g/ha): 90%; Post-emergence action against VERPE in % ([17]; dosage 80 g/ha): 90%; Post-emergence action against ORYSA in % (Oryza sativa (ORYSA) [18]; 20 g/ha, effect vs untreated controls): 0%; Post-emergence action against ZEAMX in % (crop plant compatibility) (Zea mays (ZEAMX) [19]; 20 g/ha, ZEAMX, effect in comparison to untreated controls): 0%
2 | COC(=O)COc1nn(-c2ncccc2C(F)(F)F)c(-c2cncc(F)c2)c1I [Example I-223] | 90 | 90 | – | 80 | 80 | – | – | 80 | 80 | – | 80 | 100 | 10 | 20 | – | – | 80 | 10 | – | 80 | Pre-emergence action against AVEFA in % (Avena fatua (AVEFA) [20]): 100%; Pre-emergence action against VIOTR in % (Viola tricolor (VIOTR) [11]; dosage 80 g/ha): 90%; Post-emergence action against ABUTH in % [21]: 80%; Post-emergence action against AVEFA in % (Avena fatua (AVEFA) [22]; 320 g/ha): 80%; Post-emergence action against DIGSA in % ([16]; 320 g/ha): 90%; Post-emergence action against ECHCG in % ([23]; dosage 80 g/ha): 80%; Post-emergence action against ECHCG in % ([23]; dosage 320 g/ha): 90%; Post-emergence action against PHBPU in % ([24]; dosage 80 g/ha): 80%; Post-emergence action against PHBPU in % ([24]; dosage 320 g/ha): 80%; Post-emergence action against POLCO in % ([25]; dosage 80 g/ha): 80%; Post-emergence action against POLCO in % ([25]; dosage 320 g/ha): 80%; Post-emergence action against SETVI in % (Setaria viridis (SETVI) [26]; dosage 320 g/ha): 80%; Post-emergence action against VERPE in % ([17]; 320 g/ha, VERPE): 80%; Post-emergence action against VIOTR in % (Viola tricolor (VIOTR) [27]): 80%; Post-emergence action against ORYSA in % (Oryza sativa (ORYSA) [18]; 320 g/ha, effect in comparison to untreated controls): 20%
3 | O=C(O)COc1nn(-c2nc(F)ccc2F)c(-c2ccc(F)nc2)c1C1CC1 [Example I-302] | 90 | 90 | 90 | 100 | 90 | 90 | 90 | – | – | 100 | 90 | 90 | 20 | 10 | 80 | 80 | – | 20 | 0 | 90 | Pre-emergence action against LOLRI in % (Lolium rigidum (LOLRI) [5]; dosage 80 g/ha): 80%; Post-emergence action against AMARE in % ([15]; 320 g/ha, visual rating about 3 weeks after treatment): 90%; Post-emergence action against AVEFA in % (Avena fatua (AVEFA) [22]; 80 g/ha): 80%; Post-emergence action against AVEFA in % (Avena fatua (AVEFA) [22]; 320 g/ha): 80%; Post-emergence action against DIGSA in % ([16]; 320 g/ha): 80%; Post-emergence action against ECHCG in % ([23]; dosage 320 g/ha): 80%; Post-emergence action against LOLRI in % (Lolium rigidum (LOLRI) [28]): 80%; Post-emergence action against PHBPU in % ([24]; dosage 320 g/ha): 80%; Post-emergence action against POLCO in % ([25]; dosage 320 g/ha): 80%; Post-emergence action against SETVI in % (Setaria viridis (SETVI) [26]; dosage 80 g/ha): 80%; Post-emergence action against SETVI in % (Setaria viridis (SETVI) [26]; dosage 320 g/ha): 90%; Post-emergence action against VERPE in % ([17]; 320 g/ha, VERPE): 80%; Post-emergence action against VIOTR in % (Viola tricolor (VIOTR) [27]): 80%; Post-emergence action against ZEAMX in % (Zea mays (ZEAMX) [19]; 320 g/ha): 10%
